The values below come from publication PMC12114947, “Evaluation of Violacein Metabolic Stability and Metabolite Identification in Human, Mouse, and Rat Liver Microsomes” (Pharmaceutics, 2025).

In series [1] the test system is P. falciparum 3D7 strain (chloroquine-sensitive). The arrangement: method as in PMID 29642881, PMID 33689276. The note with it: P. falciparum 3D7 (chloroquine-sensitive); cited from earlier work.
The nature of series [2]: In vitro metabolic stability in mouse liver microsomes. Format: in vitro ADME. How it is done:
After removal, a pool consisting of livers from five naïve male rats and five C57BL male mice was immediately placed in a 50 mM Tris-HCl buffer, pH 7.4, containing 150 mM KCl. The livers were diced with scissors and washed three times with buffer, followed by homogenization with 20 mL of buffer in a Potter-type homogenizer (three cycles, with each cycle comprising three grindings of 1 min each at 1000 rpm). The homogenate was centrifuged at 10,000× g for 15 min at 4 °C. The resulting supernatant was then ultracentrifuged at 100,000× g for 60 min at 4 °C to obtain the microsomal pellet, which was resuspended in 50 mM HEPES-HCl buffer, pH 7.4, containing 20% glycerol and 1 mM EDTA.
The metabolic stability of volacein was assessed as described by Godoi et al. and Antunes et al.. Aliquots (4 µL) of 100 µM violacein working solution and 96 µL of the NADPH-regenerating system, containing 1.1 mM NADP^+, 10 mM glucose-6-phosphate, 1 U/mL glucose-6-phosphate dehydrogenase, 5 mM sodium citrate, and 66 mM magnesium chloride in 100 mM phosphate buffer, pH 7.4, were transferred to propylene tubes and pre-incubated for 5 min in an MTC 100 thermo shaker incubator (Miulab, Zhejiang, China) at 300 rpm and 37 °C. Subsequently, the metabolic reactions were initiated by adding 100 μL of microsomal proteins from HLMs, RLMs, and MLMs at a concentration of 2 mg/mL to the pre-incubated shaking tubes, resulting in final concentrations of 2 μM for violacein and 1 mg/mL for microsomal proteins. In this experiment, seven incubation times were planned for each species (0, 3, 5, 15, 30, 60, and 120 min), in triplicate. At each time interval, the reactions were stopped by adding 400 μL of ice-cold acetonitrile spiked with 10 µM omeprazole (IS) to each tube. Finally, the samples were vortexed for 5 min in a BenchMixer^TM XL (Benchmark, NJ, USA) and centrifuged at 12,000× g for 15 min at 4 °C (Hettich® Universal 320 R, Tuttlingen, Germany). The supernatants were transferred to a 96-well plate and 8 μL was injected into the LC-MS/MS system (see Section 2.3).
All incubations were performed simultaneously with positive and negative controls. The positive controls were prepared by incubating dapaconazole at the same conditions as violacein (final concentrations: 2 μM) and its metabolic stability was compared with previous studies. Similarly, the negative controls were prepared by incubating violacein in buffer solution, in the absence of microsome and cofactor solutions.
Violacein was analyzed using LC-MS/MS (LC-QQQ MS, LCMS8045, Shimadzu, Kyoto, Japan). Chromatographic separation was achieved on a Raptor^TM Biphenyl column (2.1 × 100 mm, 2.7 μm) at 40 °C. The mobile phases consisted of water (mobile phase A) and methanol (mobile phase B), both containing 2 mM ammonium formate and 0.1% (v/v) formic acid. A flow rate of 0.3 mL/min was used with an elution gradient starting at 20% mobile phase B and holding for 0.2 min, followed by a linear increase to 95% mobile phase B over 2 min that was then maintained for 1 min, with a return to the initial condition in 0.2 min. The total chromatographic run time was 5 min.
In vitro t1/2 was calculated using to the following equation [60, 61]:(1) t1/2=ln(2)/k where k is the slope of the log-linear regression graph of the percentage of drug remaining as a function of time.
CLint, in vitro was calculated using to the following equation [60, 61]:(2) CLint, in vitro=0.693/t1/2×Vincubation/mmicrosomes where Vincubation indicates the volume of the incubation in μL and mmicrosomes indicates the mass of microsomal proteins added to the incubation solution in mg. […]
For orientation: Liver microsomes are vesicles of endoplasmic reticulum, rich in cytochrome P450 enzymes.

For the next series, the system named is Caco-2 cells. The arrangement: method as in PMID 16889929. The note with it: cited from earlier work.

The structures appear in SMILES notation.

By IC50 is commonly meant the point on the concentration scale where inhibition reaches its midpoint. The term microsomal CLint denotes the rate of metabolic loss divided by the concentration. Higher therefore signals rapid turnover. For `O=C1NC(c2c[nH]c3ccc(O)cc23)=C/C1=C1\C(=O)Nc2ccccc21` [violacein], the IC50 in series [1] was about 400 nM; in the series with Caco-2 cells, about 2000 nM. Also, in series [2] (MLMs), the “CLint, in vitro” value is given as 17.01 µL/min/mg. Further, the “Ln Z” value in series [2] (MLMs, time 0 min) is 4.605; in series [2] (MLMs, time 3 min), 4.490; in series [2] (MLMs, time 5 min) it was 4.379; in series [2] (MLMs, time 15 min) it was 4.244; in series [2] (MLMs, time 30 min), 4.022; in series [2] (MLMs, time 60 min), 3.715. Also, in series [2] (MLMs, time 120 min), the “Ln Z” value was determined as 3.385. Further, the “Z (%), remaining percentage of violacein” value in series [2] (MLMs, time 0 min) was found to be 100%; in series [2] (MLMs, time 3 min), 89%; in series [2] (MLMs, time 5 min), 80%; in series [2] (MLMs, time 15 min) it was 70%; in series [2] (MLMs, time 30 min), 56%; in series [2] (MLMs, time 60 min) it was 41%. In addition, the “Slope (k), metabolism rate constant” value in series [2] (MLMs, ln remaining % vs incubation time) is on record as “y = −0.0085x + 4.3405 r^2 = 0.9554 Slope (k) = 0.0085”. In series [2] (male, C57BL, mouse, mouse liver microsomes, pH 7.4, MLMs), the microsomal CLint at 2 µM was found to be 17 µL/min/mg. Moreover, the CLint scaled at 2 µM in series [2] (male, C57BL, mouse, mouse liver microsomes, pH 7.4, mouse, extrapolated from CLint, in vitro by allometric scaling, read-out: CLint, in vivo) was 67 mL/min/kg. The half-life at 2 µM in series [2] (male, C57BL, mouse, mouse liver microsomes, pH 7.4, MLMs, 2 μM violacein, 1 mg/mL microsomal protein, NADPH-regenerating system, 37 °C, n = 3, read-out: In vitro elimination half-life (t1/2)) turned out to be 1.35 h. In series [2] (mouse, extrapolated from CLint, in vitro by allometric scaling), the “CLint, in vivo” value is listed as 66.99 mL/min/kg.
